Laboratory results taken from patent US20050267120A1 (Boehringer Ingelheim International GmbH, priority 2004, published 2005).

Legend:
hMCH-1R = biological target: T1, hMCH-1R (Homo sapiens, UniProt Q99705); experiment: MCH-1 receptor binding test; details: 125I-MCH binding, membranes of CHO/Galpha16 cells stably transfected with hMCH-1R
T1 construct: expressed in transfected cells; host or cells: CHO/Galpha16 cells (membrane preparation)
Method: 200 μL of this membrane fraction (contains 1 to 3 μg of protein) are incubated for 60 minutes at ambient temperature with 100 pM of ^125I-tyrosyl melanin concentrating hormone (^125I-MCH commercially obtainable from NEN) and increasing concentrations of the test compound in a final volume of 250 μL. After the incubation the reaction is filtered using a cell harvester through 0.5% PEI treated fiberglass filters (GF/B, Unifilter Packard). The membrane-bound radioactivity retained on the filter is then determined after the addition of scintillator substance (Packard Microscint 20) in a measuring device (TopCount of Packard). […] The analysis of the concentration binding curve is carried out on the assumption of one receptor binding site.

[1] = long term trials; cited from earlier work
rats = details: cited from earlier work

T1 sequence (Q99705 whole entry): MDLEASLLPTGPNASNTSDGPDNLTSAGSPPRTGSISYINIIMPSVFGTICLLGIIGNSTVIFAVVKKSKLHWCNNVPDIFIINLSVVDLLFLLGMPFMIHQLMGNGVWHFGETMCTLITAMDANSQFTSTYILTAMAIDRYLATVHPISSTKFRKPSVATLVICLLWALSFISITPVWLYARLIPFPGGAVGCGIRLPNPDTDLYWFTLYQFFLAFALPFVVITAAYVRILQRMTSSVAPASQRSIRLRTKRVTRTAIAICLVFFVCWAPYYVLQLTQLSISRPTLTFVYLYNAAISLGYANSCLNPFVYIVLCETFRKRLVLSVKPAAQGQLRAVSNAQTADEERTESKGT

IC50 (hMCH-1R)	Compound	body weight change [1]	effects in behavioral experiments (rats)
6 nM	OC[C@@H]1CCCN1CC1CCc2cc(C#Cc3ccc(-c4ccc(Cl)cc4)cn3)ccc2O1 (stereo partly shown) [Example 1.1]	–	–
3 nM	CC1CCN(Cc2cc(=O)c3cc(C#Cc4ccc(-c5ccc(Cl)cc5)cn4)ccc3o2)CC1 [Example 2.1, 6-[5-(4-chlorophenyl)pyridin-2-ylethynyl]-2-(4-methylpiperidin-1-ylmethyl)-1-benzopyran-4-one]	–	–
–	COCC1=C(C(=O)OC)[C@H](c2ccc(F)c(F)c2)N(C(=O)NCCCN2CCC(c3cccc(NC(C)=O)c3)CC2)C(=O)N1 [SNAP-7941]	lose significant amounts of weight	anxiolytic and antidepressant effects
